Test results: PubChem BioAssay (NCI)
Several values for one entry are separate records, joined by “and”; a condition that tells them apart may be missing. Identical values can stand only once.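 Cultured in 96-well plates, cells were exposed to test compound for 48 hours across five concentrations. GI50 marks 50% less growth. Definition used: TGI = concentration required for complete inhibition of growth.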

Legend:
Assay in all cases: DTP human tumour cell line panel, 48 h
MDA-MB-231 breast = tested on: MDA-MB-231 breast
MOLT-4 leukemia = tested on: MOLT-4 leukemia
SF-539 CNS = tested on: SF-539 CNS
SK-OV-3 ovarian = tested on: SK-OV-3 ovarian
RPMI-8226 leukemia = tested on: RPMI-8226 leukemia
SNB-19 CNS = tested on: SNB-19 CNS
DU-145 prostate = tested on: DU-145 prostate
TK-10 renal = tested on: TK-10 renal
PC-3 prostate = tested on: PC-3 prostate
UACC-257 melanoma = tested on: UACC-257 melanoma

| Structure (SMILES) | TGI (MDA-MB-231 breast) [µM] | GI50 (MOLT-4 leukemia) [µM] | TGI (SF-539 CNS) | GI50 (SK-OV-3 ovarian) [µM] | TGI (SK-OV-3 ovarian) | GI50 (RPMI-8226 leukemia) | TGI (RPMI-8226 leukemia) | GI50 (SNB-19 CNS) [µM] | TGI (SNB-19 CNS) | TGI (DU-145 prostate) [µM] | TGI (TK-10 renal) [µM] | TGI (PC-3 prostate) [µM] | GI50 (UACC-257 melanoma) | TGI (UACC-257 melanoma) | GI50 (MDA-MB-231 breast) [µM] | GI50 (SF-539 CNS) [µM] | GI50 (DU-145 prostate) [µM] | GI50 (TK-10 renal) [µM] | GI50 (PC-3 prostate) [µM] | TGI (MOLT-4 leukemia) [µM] |
| --- | --- | --- | --- | --- | --- | --- | --- | --- | --- | --- | --- | --- | --- | --- | --- | --- | --- | --- | --- | --- |
| CC[C@@]1(O)C(=O)OCc2c1cc1n(c2=O)Cc2cc3cc(O)ccc3nc2-1 | > 100 | 0.011 | 0.0495 µM and 0.0166 µM | < 0.0124 | 0.7 µM and 1.85 µM | 0.139 µM and 0.277 µM | 6.03 µM and 4.87 µM | 0.00946 | 75 µM and > 23.4 µM | 0.0786 | 44.9 | > 100 | 0.047 µM and 0.156 µM | 0.481 µM and 2.1 µM |  |  |  |  |  |  |
| CCCCCCCCCCCCCCCC(=O)OCC1OC(OCCCC)[C@H](O[C@@H]2OC(C)C(OC(=O)CCC)C(O)C2O)C(O)C1O (some centres undefined) | 30.2 |  | 36.8 µM | 5.12 | 16.1 µM | 16.8 µM | 33.4 µM | 15.4 | 32.8 µM | 35 | 30.2 | 30.5 | 22.6 µM | 61.4 µM | 14.4 | 21 | 19.7 | 15.6 | 15.4 |  |
| COc1cccc(N2C(=N)/C(=C3\Nc4ccccc4S3)CC2=O)c1 | > 100 | 2.4 | > 100 µM | 1.77 | > 100 µM | 2.73 µM | > 100 µM | 18.9 | > 100 µM | > 100 | > 100 | > 100 | > 100 µM | > 100 µM | 51.1 | 5.4 | 44.3 | 17.8 | 3.03 | > 100 |
| CCN(CC)CCN1C(=O)c2c(c3c4cccc(Cl)c4n(C4OC(CO)C(OC)C(O)C4O)c3c3[nH]c4c(Cl)cccc4c23)C1=O (centres undefined) | 1.12 | < 0.0001 |  |  |  | 0.000139 µM and < 0.0268 µM | 0.00306 µM |  |  | 0.0845 |  |  |  |  |  |  |  |  |  |  |
| C/C=C(/C)C(=O)OC1C=C(CO)C(=O)C(OC(=O)C2(C)OC2C)C1C(C)C (centres undefined) | 3.79 | 1.96 | 3.38 µM | 4.45 | 14.3 µM | 1.5 µM | 5.17 µM | 2.33 | 5.87 µM | 2.88 | 3.36 | 4.5 | 1.37 µM | 2.75 µM | 1.72 | 1.86 | 1.52 | 1.88 | 1.75 | 6.5 |
| COc1cc(C2C=C(C)N=C3SC=C(C)N32)cc(OC)c1OC (centres undefined) | 9.26 | 0.445 | 4.6 µM | 2.91 | 8.54 µM | 0.385 µM | 2.57 µM | 2.32 | 15.8 µM | > 100 | 5.61 | 5.88 | 1.77 µM | 4.89 µM | 1.5 | 0.353 | 1.81 | 2.22 | 1.56 | > 100 |
| CN1CCC(=C(c2ccc(Cl)cc2)c2ccccn2)CC1 | > 100 | > 100 | > 100 µM | 61.9 | > 100 µM | > 100 µM | > 100 µM | > 100 | > 100 µM | > 100 | > 100 | > 100 | 21.5 µM | 45.8 µM | 34.5 | 85.1 | > 100 | > 100 | 80.5 | > 100 |
| N#Cc1c(-c2ccccc2)nc(SCC(O)CN2CCOCC2)nc1N1CCOCC1 (centres undefined) | > 100 | 16.1 |  | 1.87 | 12 µM | 7.78 µM | 41.6 µM | 15 | 94.8 µM | > 100 | > 100 | 7.7 | 2.88 µM | 45.7 µM | 8.36 |  | 24.5 | 10.9 | 2.42 | > 100 |
| CN(C)C/C=C/C(=O)Nc1ccc(C(=O)Nc2cccc(Nc3ncc(Cl)c(-c4c[nH]c5ccccc45)n3)c2)cc1 | 0.33 | 0.032 | 0.0575 µM | 0.12 | > 100 µM |  |  | 0.0272 | > 35.3 µM | 0.81 | 1.34 | 0.191 | 0.0216 µM | > 100 µM | 0.0332 | 0.0199 | 0.0307 | 0.0602 | 0.0315 | > 100 |
| Cc1cc2c3c(nc4ccccc42)C(=O)c2cccnc2-c3n1 | 5.56 | 0.47 | 2.21 µM | 0.25 | 1.07 µM | 0.099 µM | 0.46 µM | 0.255 | 1.66 µM | 1.48 |  | 3.04 | 0.169 µM | 0.55 µM | 0.644 | 0.495 | 0.3 |  | 0.304 | 5.69 |
| N#C/C(=C\c1ccc(O)c(O)c1)C(=O)NCc1cccc(C(F)(F)F)c1 | 29 | 5.65 | 17 µM | 24.1 | 75.6 µM | 10.2 µM | > 100 µM | 19.4 | > 100 µM | 50.9 | 6.43 | > 100 | 12.2 µM | 52.5 µM | 5.82 | 3.51 | 12.1 | 1.31 | 19.7 | 41.2 |
| Oc1ccc(/C=N/NC(=S)Nc2ccccc2)nc1 | > 100 | 3.26 | 6.19 µM | 0.748 | 32.6 µM | 3.44 µM | > 100 µM | 1.93 | > 100 µM | > 100 | > 100 | > 100 | 2.18 µM | 6.84 µM | 0.729 | 0.851 | 1.1 | 4.18 | 0.706 | > 100 |
| COc1ccc(/C=C/C(=O)C(=O)/C=C/c2ccc(OC)c(OC)c2)cc1OC | 6 | 2.06 | 5.16 µM | 36.4 | > 100 µM | 0.389 µM | 2.33 µM | 3.11 | 23.3 µM | 14.2 | 25 | > 100 |  |  | 2.25 | 2.13 | 3.08 | 3.83 | 3.3 | 19.3 |
